Measured values: US20110065769A1, “Transdermal delivery of ionizable drugs” (priority 2009, published 2011)

What was measured:
[1] = Aqueous solubility with addition of 3% PerRx; type: physicochemical; settings: 3% PerRx added to control formulation
From the text: So in the present work, it is believed that at pH 7.4 addition of the acetic acid functional group into polar head position will affect tremendously the physical chemical properties of molecules. […] See the results table.

[2] = Rat skin flux enhancement, side by side diffusion cell; type: in vitro ADME; settings: for Skin flux enhancement by 3% PerRx (in words): 3% PerRx vs control at pH 7.4; for Skin flux, control: control formulation without PerRx; for Skin flux, control / Flux enhancement (S.F. Control + 3% PerRx)/(S.F. control) / Skin flux, control + 3% PerRx: hairless rat skin; for Skin flux, control / Skin flux, control + 3% PerRx: donor suspension pH 7.4, 37° C.; for Flux enhancement (S.F. Control + 3% PerRx)/(S.F. control): ratio of skin flux with 3% PerRx to control, pH 7.4; for Skin flux, control + 3% PerRx: with 3% PerRx enhancer
Procedure: […] The dorsal skin from a rat was excised and mounted on a side by side diffusion cell assembly with a contact area of 0.95 cm^2 and cell volume of 2.5 ml. The temperature of the diffusion cell was regulated at 37° C. The excised rat skin was clamped between the donor cell and the receiver with the dorsal stratum corneum facing the donor cell.
The model drug molecules were suspended in physiological phosphate buffer solution, of pH 7.4. The sampling volume of 1.0 ml was removed at the time point and the sampling volume was replaced with a fresh volume of the buffer solution. Skin flux of the drugs was measured in the absence or presence of the enhancer N,N-dimethylamino isobutyric acid propylene glycol mono laureate (also known as dodecanoic acid 2-(3-dimethylamethyl-propionyloxy)-propylester, or PerRx™).

| Compound | Effect of addition of 3% PerRx on aqueous solubility [1] | Skin flux enhancement by 3% PerRx (in words) [2] | Skin flux, control [2] | Flux enhancement (S.F. Control + 3% PerRx)/(S.F. control) [2] | Skin flux, control + 3% PerRx [2] |
| --- | --- | --- | --- | --- | --- |
| O=[N+]([O-])O[C@@H]1CO[C@H]2[C@@H]1OC[C@@H]2O [ISMN, Isosorbide mono nitrate] | does not affect the aqueous solubility | enhanced most | 40 μg/cm^2-hr | 18 X | 700 μg/cm^2-hr |
| O=[N+]([O-])O[C@H]1CO[C@H]2[C@@H]1OC[C@H]2O[N+](=O)[O-] [ISDN, Isosorbide di nitrate] |  |  | 20 μg/cm^2-hr | 2X | 40 μg/cm^2-hr |
| COc1ccc2c(c1)c(CC(=O)O)c(C)n2C(=O)c1ccc(Cl)cc1 [INDOM, indomethacin] |  | enhanced most | 0.5 μg/cm^2-hr | 14X | 7.0 μg/cm^2-hr |
